Columns and labels:
[1] = Urinary excretion of flavanone-derived metabolites after single intake of lemon or orange extract (UPLC-ESI-QTOF-MS); assay type: in vivo, human; conditions: for Occurrence Urine LE (number of volunteers in whom the metabolite was detected): after consuming lemon extract; for Occurrence Urine LE (number of volunteers in whom the metabolite was detected) / Occurrence Urine OE (number of volunteers in whom the metabolite was detected): n = 16 volunteers; for Occurrence Urine OE (number of volunteers in whom the metabolite was detected): after consuming orange extract; for Urinary excretion F1: urine fraction 0-4 h; for Urinary excretion F1 / Urinary excretion Total F / Urinary excretion F2 / Urinary excretion F3 / Urinary excretion F4: mean ± SD; for Urinary excretion Total F: sum of fractions F1-F4 (24 h); for Urinary excretion F2: urine fraction 4-8 h; for Urinary excretion F3: urine fraction 8-10 h; for Urinary excretion F4: urine fraction 10-24 h
Text: Secondary endpoints involved the evaluation of post-prandial changes in several biomarkers dealing with metabolism, inflammation, and oxidative stress after a high-fat-high-sugars meal. The design was a randomized pharmacokinetic, double-blind, crossover, single-dose trial consisted of 2 test-phases. The volunteers were randomly allocated into two groups using a computerized random number list. Each group consumed one of the citrus extracts by following a test-phase that lasted for 1 day for blood sampling and urine collection, a 2-week washout period between each test phase, and crossover before consuming the other extract. The volunteers were instructed to avoid the consumption of flavanone-containing products, from a list provided by the researchers, for 1 week before the study and during the wash-out phase (citrus fruit juices, tomatoes, tomato-based sauces (like ‘ketchup’), peppers, almonds, etc.). […] The 3 capsules provided a total of 1.95 g orange extract, containing 260 mg hesperidin, and 3.1 g lemon extract, containing 260 mg eriocitrin. […] Untreated urine samples were aliquoted and frozen at −80 °C for up to 4 weeks until analyses, avoiding freeze-thaw cycles to avoid metabolites’ deconjugation. Moreover, three measurements of blood pressure and heart rate were taken before each time-point of blood withdrawal. […] A previously validated method for analyzing phenolic metabolites in biological samples, including flavanone-derived metabolites, was used. […] After centrifugation at 14,000× g for 10 min at 4 °C, the supernatant was evaporated in a speed vacuum concentrator. Finally, samples were re-suspended in 100 µL of methanol, filtered through a 0.22 µm cellulose filters before analysis by UPLC- ESI-QTOF-MS. […] A targeted screening strategy was applied to identify metabolites that could be present after consuming the citrus extracts. Twenty-eight possible compounds were browsed in all the samples. The list of compounds included the polyphenols present in the extracts, with particular focus on the flavanone rutinosides hesperidin and eriocitrin, their respective aglycones hesperetin, and eriodictyol, as well as their derived phase-II conjugates (glucuronides, sulfates, sulfoglucuronides, etc.). The exact mass of each proposed compound was extracted using an extraction window of 0.01 m/z. The metabolites hesperetin 7-O-glucuronide, hesperetin 3′-O-glucuronide, hesperetin 3-O-sulfate, naringenin 4′-O-glucuronide, and naringenin 7′-O-glucuronide were quantified with their corresponding standards. […] The parent phenolic compounds were quantified with their corresponding standards. In the case of some relevant conjugated metabolites, which standards were not available (eriodictyol and homoeriodictyol conjugates), their quantification was achieved by using relative response factors (RRFs) as previously described. Briefly, RRFs are useful to check the different responses of metabolites in the mass spectrometer vs. their UV signal. While the ionization response of free vs. conjugated forms is usually very different, their UV signal response is quite similar. To this purpose, we injected in a HPLC-DAD-ESI-Q (MS) the plasma samples (n = 5) with the highest concentrations of those conjugated metabolites. Concentrations were calculated by integrating the area from their corresponding UV peaks and compared with the UV peak area of a known concentration of their corresponding available parent compounds (eriodictyol and homoeriodictyol). The concentrations calculated were used to compare the MS response for each conjugated-aglycone pair.

[2] = Plasma metabolites and pharmacokinetics after single intake of lemon or orange extract (UPLC-ESI-QTOF-MS, non-compartmental analysis); assay type: in vivo, human; conditions: for Occurrence Plasma LE (number of volunteers in whom the metabolite was detected): after consuming lemon extract; for Occurrence Plasma LE (number of volunteers in whom the metabolite was detected) / Occurrence Plasma OE (number of volunteers in whom the metabolite was detected): n = 16 volunteers; for Occurrence Plasma OE (number of volunteers in whom the metabolite was detected): after consuming orange extract; for AUC(0-t) / Cmax / Tmax: after lemon extract, mean ± SD
Text: Secondary endpoints involved the evaluation of post-prandial changes in several biomarkers dealing with metabolism, inflammation, and oxidative stress after a high-fat-high-sugars meal. The design was a randomized pharmacokinetic, double-blind, crossover, single-dose trial consisted of 2 test-phases. The volunteers were randomly allocated into two groups using a computerized random number list. Each group consumed one of the citrus extracts by following a test-phase that lasted for 1 day for blood sampling and urine collection, a 2-week washout period between each test phase, and crossover before consuming the other extract. The volunteers were instructed to avoid the consumption of flavanone-containing products, from a list provided by the researchers, for 1 week before the study and during the wash-out phase (citrus fruit juices, tomatoes, tomato-based sauces (like ‘ketchup’), peppers, almonds, etc.). […] The 3 capsules provided a total of 1.95 g orange extract, containing 260 mg hesperidin, and 3.1 g lemon extract, containing 260 mg eriocitrin. […] Plasma samples were obtained by centrifugation of peripheral venous blood at 14,000× g for 15 min at 4 °C and immediately frozen at −80 °C. Glucose, total cholesterol, HDL-cholesterol, LDL-cholesterol, triglycerides, insulin, homeostatic model assessment insulin resistance (HOMA-IR), gamma-glutamyl transferase (GGT), and alanine aminotransferase (ALT) were determined as previously reported. […] A previously validated method for analyzing phenolic metabolites in biological samples, including flavanone-derived metabolites, was used. […] After centrifugation at 14,000× g for 10 min at 4 °C, the supernatant was evaporated in a speed vacuum concentrator. Finally, samples were re-suspended in 100 µL of methanol, filtered through a 0.22 µm cellulose filters before analysis by UPLC- ESI-QTOF-MS. A targeted screening strategy was applied to identify metabolites that could be present after consuming the citrus extracts. Twenty-eight possible compounds were browsed in all the samples. The list of compounds included the polyphenols present in the extracts, with particular focus on the flavanone rutinosides hesperidin and eriocitrin, their respective aglycones hesperetin, and eriodictyol, as well as their derived phase-II conjugates (glucuronides, sulfates, sulfoglucuronides, etc.). The exact mass of each proposed compound was extracted using an extraction window of 0.01 m/z. The metabolites hesperetin 7-O-glucuronide, hesperetin 3′-O-glucuronide, hesperetin 3-O-sulfate, naringenin 4′-O-glucuronide, and naringenin 7′-O-glucuronide were quantified with their corresponding standards. […] The parent phenolic compounds were quantified with their corresponding standards. In the case of some relevant conjugated metabolites, which standards were not available (eriodictyol and homoeriodictyol conjugates), their quantification was achieved by using relative response factors (RRFs) as previously described. Briefly, RRFs are useful to check the different responses of metabolites in the mass spectrometer vs. their UV signal. While the ionization response of free vs. conjugated forms is usually very different, their UV signal response is quite similar. To this purpose, we injected in a HPLC-DAD-ESI-Q (MS) the plasma samples (n = 5) with the highest concentrations of those conjugated metabolites. Concentrations were calculated by integrating the area from their corresponding UV peaks and compared with the UV peak area of a known concentration of their corresponding available parent compounds (eriodictyol and homoeriodictyol). The concentrations calculated were used to compare the MS response for each conjugated-aglycone pair. Statistical analyses were carried out using the SPSS Software, version 23.0 (SPSS Inc., Chicago, IL, USA). Data are expressed as mean ± SD. The empirical distribution of data with the normality assumption was tested with the Shapiro-Wilk test. […]

[3] = set-up: method as in PMID 28970059; conditions: eriocitrin vs. hesperidin ref 28; cited from earlier work
[4] = lemon extract (3.1 g, 260 mg eriocitrin)

| Molecule | Occurrence Urine LE (number of volunteers in whom the metabolite was detected) [1] | Occurrence Urine OE (number of volunteers in whom the metabolite was detected) [1] | Occurrence Plasma LE (number of volunteers in whom the metabolite was detected) [2] | Occurrence Plasma OE (number of volunteers in whom the metabolite was detected) [2] | Solubility [3] | Urinary excretion F1 [1, 4] [µg/mg creatinine] | Urinary excretion Total F ([1]; lemon extract) [µg/mg creatinine] | Urinary excretion F2 ([1]; lemon extract) [µg/mg creatinine] | Urinary excretion F3 ([1]; lemon extract) [µg/mg creatinine] | Urinary excretion F4 ([1]; lemon extract) [µg/mg creatinine] | Urinary excretion F1 ([1]; orange extract (1.95 g, 260 mg hesperidin)) [µg/mg creatinine] | Urinary excretion Total F ([1]; orange extract) [µg/mg creatinine] | Urinary excretion F2 ([1]; orange extract) [µg/mg creatinine] | Urinary excretion F3 ([1]; orange extract) [µg/mg creatinine] | Urinary excretion F4 ([1]; orange extract) [µg/mg creatinine] | AUC(0-t) [2] [µM·h] | Cmax [2] [nM] | Tmax [2] [h] |
| --- | --- | --- | --- | --- | --- | --- | --- | --- | --- | --- | --- | --- | --- | --- | --- | --- | --- | --- |
| COc1cc([C@@H]2CC(=O)c3c(O)cc(O)cc3O2)ccc1O [M16, Homoeriodictyol] | 12 | 1 | 15 | 1 | – | – | – | – | – | – | – | – | – | – | – | – | – | – |
| COc1ccc([C@@H]2CC(=O)c3c(O)cc(O)cc3O2)cc1O [M17, Hesperetin] | 5 | 8 | 8 | 3 | – | – | – | – | – | – | – | – | – | – | – | – | – | – |
| C[C@@H]1O[C@@H](OC[C@H]2O[C@@H](Oc3cc(O)c4c(c3)O[C@H](c3ccc(O)c(O)c3)CC4=O)[C@H](O)[C@@H](O)[C@@H]2O)[C@H](O)[C@H](O)[C@H]1O [eriocitrin, Eriocitrin] | – | – | – | – | higher solubility | – | – | – | – | – | – | – | – | – | – | – | – | – |
| Eriodictyol sulfate [M13] | 16 | 12 | 16 | 10 | – | 4.6 ± 5.0 | 32.6 ± 36.5 | 14.6 ± 17.3 | 11.9 ± 12.6 | 1.5 ± 1.5 | 0.02 ± 0.01 | 0.6 ± 0.9 | 0.1 ± 0.1 | 0.2 ± 0.4 | 0.3 ± 0.4 | 6.12 ± 6.631 | 1710 ± 1510 | 5.7 ± 2.5 |
| Eriodictyol sulfoglucuronide [M9] | 5 | 0 | 15 | 0 | – | – | – | – | – | – | – | – | – | – | – | – | – | – |
| Hesperetin sulfoglucuronide [M11] | 0 | 7 | 0 | 8 | – | – | – | – | – | – | – | – | – | – | – | – | – | – |
| Homoeriodictyol glucuronide [M6] | 16 | 3 | 16 | 3 | – | 13.9 ± 16.2 | 106 ± 171 | 48.1 ± 90.0 | 37.2 ± 56.9 | 6.8 ± 8.0 | – | – | – | – | – | 3.133 ± 4.17 | 780 ± 863 | 6.1 ± 2.4 |
| Homoeriodictyol sulfate [M10] | 16 | 0 | 16 | 3 | – | 3.8 ± 3.2 | – | 4.0 ± 5.5 | 3.6 ± 4.1 | 0.5 ± 0.4 | – | – | – | – | – | 1.778 ± 2.257 | 479 ± 524 | 6.5 ± 2.2 |
